Results from patent EP1818063A1, “MEDICINE FOR TREATMENT OF DISEASE CAUSED BY HYPERSTIMULATORY CYTOTOXICITY AND THERAPEUTIC METHOD” (Japan Science and Technology Agency, priority 2004, dated 2006).
Read-outs that look alike come from different tables or passages of the source.

Key:
Assay type in all cases: cell-based, mouse
[1] = system: EGFP-transfected primary cultured cerebral cortical neurons; assay: Recovery from varicosities after removal of excitotoxic (NMDA) stimulation; details: 60 minutes after 20-minute 30 µM NMDA stimulation; concentration not given
Method: Primary cultured cerebral cortical neurons were transfected on day 3 of culture with a plasmid containing green fluorescent protein EGFP gene, using a […] phosphate method. […] Cells on day 2-6 of transfection were used for the experiment.
The cells were subjected to an excitotoxic stimulant by 20-minute exposure to low-magnesium HEPES buffer (composition: 142 mM NaCl, 2.5 mM KCl, 0.5 mM EGTA, 0.5 mM MgCl2, 0.33 mM NaH2PO4, 10 mM HEPES, 5.5 mM glucose, 0.03 mM glycine) containing NMDA (30 µM). After stimulation, the cells were washed three times with normal HEPES buffer (composition: 140 mM NaCl, 2.5 mM KCl, 2 mM CaCl2, 2 mM MgCl2, 10 mM HEPES, 5.5 mM glucose, 35 mM mannitol). The cells were then incubated at 37°C in the same buffer, and fixed with 4% paraformaldehyde at different time points (0, 15, 30, 60 min).
As in Example 4, EGFP-transfected primary cultured cerebral cortical neurons were used. According to the procedure of Example 4, the cells were subjected to excitotoxic stimulation, and incubated with normal HEPES buffer supplemented with various kinds of medicines. After 60 minutes, the cells were fixed with 4% paraformaldehyde, and the number of varicosity-bearing cells was counted with a fluorescent microscope as a percentage of the total number of counted neurons.

[2] = system: primary cultured cerebral cortical neurons; assay: Necrotic neuronal cell death by PI staining after NMDA exposure
Method: (§1) In order to access effects of volume-sensitive Cl- channel blocker on neuronal swelling or necrosis caused by hyperexcitation, primary cultures of cerebral cortical neurons isolated from fetuses removed from mice on day 16 of pregnancy were used. The primary cultured cerebral cortical neurons were cultured in a 5% CO2 incubator at 37°C, using Dulbecco's medium supplemented with 10% fetal bovine serum, streptomycin, and penicillin. To visualize dendrites, the cultured cerebral cortical neurons were transfected with EGFP gene on day 3 of culture, using a […] phosphate method. As an excitotoxic stimulant, Earle's Balanced Salt Solution (EBSS; commercially available as GIBCO#14155-063) was used that contained 30 µM N-methyl-D-aspartate (NMDA) and 30 µM glycine, supplemented with 2 mM CaCl2 and 0.5 mM MgCl2. To confirm activation of volume-sensitive Cl- channel, an experiment was conducted using a perforated-vesicle patch-clamp technique. After forming a gigaohm seal on the membrane of the varicosities exposed to excitotoxic stimulation, recording electrodes were raised to record currents from a single varicosity patch membrane. The intracellular and extracellular solutions used for the patch-clamp experiment were composed of the following. Extracellular solution: 124 mM N-methyl-D-glucamine (NMDG), 124 mM HCl, 20 mM TEA-Cl, 4 mM MgCl2, 0.33 mM NaH2PO4, 0.5 mM EGTA, 10 mM 2-[4-(2-hydroxyethyl)-1-piperazinyl] ethanesulfonic acid (HEPES), 2 mM 4-aminopyridine (4-AP), 5.5 mM glucose, 270mOsm, pH7.4. Intracellular solution: 145 mM KCl, 10 mM HEPES, 1 mM EGTA, 1 mM MgCl2, 0.3 mg/ml nystatin, 300mOsm, pH 7.4.
(§2) Necrotic neuronal cell death was assessed by PI staining in which the nuclei are stained with a propidium iodide (PI) dye that enters the cells through damaged portions of the plasma membrane, or by measuring the level of extracellular lactate dehydrogenase (LDH) released from dead cells.

[3] = system: primary cultured cerebral cortical neurons; assay: Varicosity formation (neuronal swelling) during excitotoxic NMDA stimulation
Method: as §1
Neuronal swelling was assessed as a proportion of varicosity-forming cells in the total number of neurons. After 20-minute excitotoxic stimulation, the cells were fixed with 4% paraformaldehyde, and the number of cells in each cell group was counted with a fluorescent microscope.
Figure 7A is micrographs showing excitotoxic swelling of neurons induced by glutamate receptor agonist (30 µM NMDA). Primary cultured cerebral cortical neurons were visualized through EGFP expression. […] Figure 7B represents inhibitory action of Cl- channel blocker on varicosity formation. In the Figure, asterisk indicates a level of significant difference (p<0.05) from data on NMDA (before application of blocker).

[4] = system: primary cultured cerebral cortical neurons; assay: Necrotic neuronal cell death by LDH release after NMDA exposure
Method: as §1, §2

[5] = system: volume-sensitive Cl- channel; assay: Whole-cell patch-clamp of current activated by hyposmotic stimulation; details: primary cultured cerebral cortical neurons
Method: The cerebral cortex of fetuses removed from mice on day 16 of pregnancy was plated on cover-glass slips after digestion with papain. To prevent growth of glias and other proliferative cells, the cultures were supplemented with AraC (4 µM) 2 days after plating and a neuron-rich (>95%) culture system was prepared. A whole-cell patch-clamp technique was applied to primary cultures of cerebral cortical neurons (5-8 days after incubation). The intracellular and extracellular solutions used for the patch-clamp experiments were composed of the following. Intracellular solution (300mOsm, pH 7.4): 24 mM NMDG-C1, 100 mM NMDG-aspartate, 2 mM MgCl2, 5 mM Na2ATP, 0.3 mMNa3 GTP, 1 mM EGTA, 10 mM HEPES. […] Osmolality was adjusted by adding mannitol. Current activation was observed overtime by applying a potential of ±60 mV (500 ms duration, every 15 s) from a holding potential of -40 mV. To observe current kinetics, step pulses from -100 mV to +100 mV in 20 mV increments were applied (0.5 s duration) and current response was observed. The recordings were plotted in a current-voltage curve.

[6] = system: volume-sensitive Cl- channel; assay: Perforated-vesicle patch-clamp of single-channel currents on the varicosity membrane
Method: In order to access effects of volume-sensitive Cl- channel blocker on neuronal swelling or necrosis caused by hyperexcitation, primary cultures of cerebral cortical neurons isolated from fetuses removed from mice on day 16 of pregnancy were used. The primary cultured cerebral cortical neurons were cultured in a 5% CO2 incubator at 37°C, using Dulbecco's medium supplemented with 10% fetal bovine serum, streptomycin, and penicillin. To visualize dendrites, the cultured cerebral cortical neurons were transfected with EGFP gene on day 3 of culture, using a […] phosphate method. As an excitotoxic stimulant, Earle's Balanced Salt Solution (EBSS; commercially available as GIBCO#14155-063) was used that contained 30 µM N-methyl-D-aspartate (NMDA) and 30 µM glycine, supplemented with 2 mM CaCl2 and 0.5 mM MgCl2. To confirm activation of volume-sensitive Cl- channel, an experiment was conducted using a perforated-vesicle patch-clamp technique. […]
After forming a gigaohm seal on the membrane of varicosities formed by excitotoxic stimulation (Figure 8A), the recording electrodes were lifted up to excise a single varicosity, with which recordings of volume-sensitive Cl- currents were made (Figure 8B). […] These properties of the recorded currents coincided with those of the volume-sensitive Cl- channel.

[7] = system: cerebral cortical neurons; assay: Volume regulation (recovery from swelling) under hypotonic conditions, soma cross-sectional area by two-photon microscopy; details: 80 µM; hyposmotic solution 200mOsm
Method: Primary cultured neurons on day 5-8 of culture were loaded with calcein-AM to visualize the cells, and X-Y cross sectional images were captured over time with a two-photon laser microscope. Cell size was assessed based on changes in cross sectional area of the soma. An area ratio at each time point was calculated and plotted on a graph, with the area at the start of experiment given as 1 (Figure 2B). The solution used for the experiment had the following composition: 90 mM NaCl, 2.5 mM KCl, 5 mM HEPES, 2 mM MgCl2, 2 mM CaCl2, and 10 mM glucose.

[8] = 100 µM co-applied with NMDA for 3 hours
[9] = 100 µM during 20-minute 30 µM NMDA stimulation
[10] = 40 µM co-applied with NMDA for 3 hours

O=C(CCc1ccc(O)cc1)c1c(O)cc(O)cc1O [phloretin]
Recovery from varicosities [1]: significantly inhibited | number of PI positive cells [2, 8]: decreased significantly | number of varicosity-forming neurons [3, 9]: decreased significantly | level of LDH release [4, 8]: significantly inhibited | inhibition of current activated by hyposmotic stimulation ([5]; 100 µM): inhibited

CN1CCc2cc3c(cc2[C@H]1[C@@H]1OC(=O)c2c1ccc1c2OCO1)OCO3 [bicuculline]
number of PI positive cells [2]: no significant inhibiting effects | number of varicosity-forming neurons [3]: no significant inhibiting effects | level of LDH release [4]: No inhibiting effects

O=S(=O)(O)c1cc(N=C=S)ccc1C=Cc1ccc(N=C=S)cc1S(=O)(=O)O [DIDS]
inhibition of current activated by hyposmotic stimulation ([5]; 400 µM): inhibited

O=C(O)c1cc([N+](=O)[O-])ccc1NCCCc1ccccc1 [NPPB]
Recovery from varicosities [1]: significantly inhibited | number of PI positive cells [2, 10]: decreased significantly | single-channel events observed on the varicosity ([6]; 80 µM, 3 minutes after application): blocked | blocking effect after removal ([6]; 3 minutes after removal of 80 µM): reversible | volume regulation [7]: inhibited | number of varicosity-forming neurons ([3]; 40 µM during 20-minute 30 µM NMDA stimulation): decreased significantly | level of LDH release [4, 10]: significantly inhibited | inhibition of current activated by hyposmotic stimulation ([5]; 80 µM): inhibited

picrotoxin
number of PI positive cells [2, 8]: no significant inhibiting effects | number of varicosity-forming neurons [3, 9]: no significant inhibiting effects | level of LDH release [4, 8]: No inhibiting effects
